Values joined by “and” are separate entries in the source; they are usually repeats but may differ in a detail not shown here. Equal values may be shown once. Inconclusive results and toxic doses are left out. The calls were made as follows: active = survival T/C of 150% or more; inactive = T/C below 125% in these data.
Test system: BDF1 mice, P388 leukemia ip, median survival T/C
Experiment: NCI In Vivo Anticancer Drug Screen. Data for tumor model P388 Leukemia (intraperitoneal) in B6D2F1 (BDF1) mice
Details: endpoint: median survival time, higher = longer survival
How it was run: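 Antitumour effect was judged in vivo: survival in drug-treated mice, normalised to that of vehicle-dosed controls, gives the reported T/C.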

[1] = dose: 50.0 mg/kg/injection, schedule: Q01DX009 (ip), vehicle: saline
[2] = dose: 100.0 mg/kg/injection, schedule: Q01DX009 (ip), vehicle: saline
[3] = dose: 200.0 mg/kg/injection, schedule: Q01DX009 (ip), vehicle: saline
[4] = dose: 50.0 mg/kg/injection, schedule: Q01DX009 (ip), vehicle: saline with Tween-80
[5] = dose: 100.0 mg/kg/injection, schedule: Q01DX009 (ip), vehicle: saline with Tween-80
[6] = dose: 200.0 mg/kg/injection, schedule: Q01DX009 (ip), vehicle: saline with Tween-80
[7] = dose: 6.25 mg/kg/injection, schedule: Q01DX009 (ip), vehicle: saline
[8] = dose: 12.5 mg/kg/injection, schedule: Q01DX009 (ip), vehicle: saline
[9] = dose: 400.0 mg/kg/injection, schedule: Q01DX009 (ip), vehicle: Klucel (hydroxypropylcellulose) (HPC)
[10] = dose: 0.78 mg/kg/injection, schedule: Q01DX009 (ip), vehicle: saline with Tween-80
[11] = dose: 1.56 mg/kg/injection, schedule: Q01DX009 (ip), vehicle: saline with Tween-80
[12] = dose: 3.12 mg/kg/injection, schedule: Q01DX009 (ip), vehicle: saline with Tween-80
[13] = dose: 50.0 mg/kg/injection, schedule: Q04DX003 (ip), vehicle: saline with Tween-80
[14] = dose: 100.0 mg/kg/injection, schedule: Q04DX003 (ip), vehicle: saline with Tween-80
[15] = dose: 200.0 mg/kg/injection, schedule: Q04DX003 (ip), vehicle: saline with Tween-80
[16] = dose: 400.0 mg/kg/injection, schedule: Q04DX003 (ip), vehicle: saline with Tween-80

Measured: T/C

O=C1c2ccccc2C(=O)N1c1cc(O)cc(O)c1
inactive: dose: 1.0 mg/kg/injection, schedule: Q01DX009 (ip), vehicle: water 109 % of control | dose: 2.0 mg/kg/injection, schedule: Q01DX009 (ip), vehicle: water 113 % of control | dose: 4.0 mg/kg/injection, schedule: Q01DX009 (ip), vehicle: water 95 % of control and 98 % of control and 105 % of control | dose: 8.0 mg/kg/injection, schedule: Q01DX009 (ip), vehicle: water 90 % of control and 95 % of control | dose: 16.0 mg/kg/injection, schedule: Q01DX009 (ip), vehicle: water 100 % of control and 115 % of control | dose: 20.0 mg/kg/injection, schedule: Q01DX009 (ip), vehicle: water 101 % of control | dose: 32.0 mg/kg/injection, schedule: Q01DX009 (ip), vehicle: water 109 % of control | dose: 50.0 mg/kg/injection, schedule: Q04DX003 (ip), vehicle: water 100 % of control | dose: 100.0 mg/kg/injection, schedule: Q04DX003 (ip), vehicle: water 106 % of control | dose: 200.0 mg/kg/injection, schedule: Q04DX003 (ip), vehicle: water 97 % of control | dose: 400.0 mg/kg/injection, schedule: Q04DX003 (ip), vehicle: water 92 % of control

COc1ccc(C(=O)N(N)C2CCCCC2)cc1
inactive: [1] 105 % of control | [2] 105 % of control | [3] 100 % of control

Cc1c[nH]c(=O)[nH]c1=O
inactive: dose: 390.0 mg/kg/injection, schedule: Q04DX003 (ip), vehicle: saline with Tween-80 98 % of control | dose: 390.0 mg/kg/injection, schedule: Q## X003 (ip), vehicle: saline with Tween-80 98 % of control | dose: 520.0 mg/kg/injection, schedule: Q04DX003 (ip), vehicle: saline with Tween-80 93 % of control | dose: 520.0 mg/kg/injection, schedule: Q## X003 (ip), vehicle: saline with Tween-80 93 % of control

c1ccc(-c2nnc3ncccn23)cc1
inactive: [4] 96 % of control | [5] 93 % of control | [6] 93 % of control

C=C(Cl)CSCCS
inactive: dose: 25.0 mg/kg/injection, schedule: Q01DX009 (ip), vehicle: acetone 104 % of control | dose: 50.0 mg/kg/injection, schedule: Q01DX009 (ip), vehicle: acetone 104 % of control

CC1C=CC(=O)O1 (stereo not drawn)
inactive: [1] 105 % of control | [2] 105 % of control | [3] 112 % of control | dose: 400.0 mg/kg/injection, schedule: Q01DX009 (ip), vehicle: saline 112 % of control

Cn1cnnc1N
inactive: dose: 100.0 mg/kg/injection, schedule: Q01DX001 (ip), vehicle: saline 100 % of control | dose: 200.0 mg/kg/injection, schedule: Q01DX001 (ip), vehicle: saline 95 % of control | dose: 400.0 mg/kg/injection, schedule: Q01DX001 (ip), vehicle: saline 104 % of control

S=c1nn[nH]n1-c1ccccc1.[Zn+2]
inactive: [4] 109 % of control | [5] 118 % of control

O=S(=O)([O-])[O-].OCCNCCNCC[OH2+].OCCNCCNCC[OH2+].[Cu+2]
inactive: [7] 94 % of control | [8] 100 % of control | dose: 25.0 mg/kg/injection, schedule: Q01DX009 (ip), vehicle: saline 94 % of control

O=C1C=C(N2CC2)C(=O)C(N2CC2)=C1N1CC1
active: dose: 0.02 mg/kg/injection, schedule: Q01DX009 (ip), vehicle: saline 265 % of control and 328 % of control
inactive: dose: 0.04 mg/kg/injection, schedule: Q01DX009 (ip), vehicle: saline 98 % of control

CCCCCCCCCCCCCCSC(CC(=O)O)C(=O)NNC(N)=S (stereo not drawn)
inactive: dose: 87.5 mg/kg/injection, schedule: Q01DX009 (ip), vehicle: saline with Tween-80 101 % of control | dose: 175.0 mg/kg/injection, schedule: Q01DX009 (ip), vehicle: saline with Tween-80 101 % of control | dose: 350.0 mg/kg/injection, schedule: Q01DX009 (ip), vehicle: saline with Tween-80 113 % of control

O=S(=O)(OC1=CCCCC1)C(F)(F)F
inactive: [1] 104 % of control | [2] 107 % of control | [3] 109 % of control

O=C1/C(=C/c2cccc([N+](=O)[O-])c2)CCc2ccccc21
inactive: dose: 100.0 mg/kg/injection, schedule: Q04DX003 (ip), vehicle: Klucel (hydroxypropylcellulose) (HPC) 100 % of control | dose: 200.0 mg/kg/injection, schedule: Q04DX003 (ip), vehicle: Klucel (hydroxypropylcellulose) (HPC) 100 % of control | [9] 104 % of control | dose: 400.0 mg/kg/injection, schedule: Q04DX003 (ip), vehicle: Klucel (hydroxypropylcellulose) (HPC) 95 % of control

CC(N)Cc1c(Cl)cc(N(C)C)cc1Cl (stereo not drawn)
inactive: dose: 3.13 mg/kg/injection, schedule: Q01DX009 (ip), vehicle: saline 100 % of control | [7] 100 % of control | [8] 102 % of control

CC(C1CCC/C(=N\NC(N)=O)C1)[N+](=O)[O-] (stereo not drawn)
inactive: dose: 0.19 mg/kg/injection, schedule: Q01DX009 (ip), vehicle: saline with Tween-80 103 % of control | dose: 0.39 mg/kg/injection, schedule: Q01DX009 (ip), vehicle: saline with Tween-80 101 % of control and 102 % of control and 119 % of control | [10] 95 % of control and 99 % of control | [11] 96 % of control and 100 % of control and 109 % of control | [12] 93 % of control and 108 % of control and 113 % of control | dose: 6.25 mg/kg/injection, schedule: Q01DX009 (ip), vehicle: saline with Tween-80 92 % of control and 94 % of control

CC(=O)Nc1nncs1
inactive: dose: 100.0 mg/kg/injection, schedule: Q01DX009 (ip), vehicle: saline sonified 113 % of control | dose: 200.0 mg/kg/injection, schedule: Q01DX009 (ip), vehicle: saline sonified 109 % of control

O=[N+]([O-])c1cc(S(=O)(=O)NCc2ccco2)ccc1N/N=C/c1ccccn1
inactive: [10] 99 % of control | [11] 99 % of control | [12] 95 % of control

CCCC/C=C/CO
inactive: [4] 108 % of control | [5] 103 % of control

O=C(O)CSc1ccc(NC(=O)Nc2ccccc2F)cc1
inactive: dose: 100.0 mg/kg/injection, schedule: Q01DX009 (ip), vehicle: Klucel (hydroxypropylcellulose) (HPC) 105 % of control | dose: 200.0 mg/kg/injection, schedule: Q01DX009 (ip), vehicle: Klucel (hydroxypropylcellulose) (HPC) 105 % of control | [9] 105 % of control

CCN(CC)CC1CO1 (stereo not drawn)
inactive: [8] 100 % of control

O=C1c2ccccc2C(=O)N1CCc1ccccn1
inactive: [13] 100 % of control | [5] 100 % of control | [14] 95 % of control and 111 % of control | [6] 95 % of control | [15] 100 % of control and 111 % of control | [16] 88 % of control

O=[N+]([O-])c1ccc(N=Nc2c(O)ccc3ccccc23)cc1
inactive: dose: 25.0 mg/kg/injection, schedule: Q01DX009 (ip), vehicle: saline with Tween-80 109 % of control | [4] 100 % of control | [13] 111 % of control | [5] 96 % of control | [14] 120 % of control | [6] 105 % of control | [15] 110 % of control | dose: 400.0 mg/kg/injection, schedule: Q01DX009 (ip), vehicle: saline with Tween-80 106 % of control | [16] 105 % of control

C=CCC(CC)(C(=O)O)C(=O)O
inactive: [1] 100 % of control | [2] 90 % of control

CCCN=C(N)c1ccc(NC(=O)c2ccc(C(=O)Nc3ccc(C(N)=NCCC)cc3)cc2)cc1
active: dose: 14.0 mg/kg/injection, schedule: Q04DX003 (ip), vehicle: saline with Tween-80 163 % of control | dose: 21.0 mg/kg/injection, schedule: Q04DX003 (ip), vehicle: saline with Tween-80 163 % of control | dose: 33.0 mg/kg/injection, schedule: Q04DX003 (ip), vehicle: saline with Tween-80 159 % of control and 200 % of control | [13] 172 % of control and 204 % of control | dose: 75.0 mg/kg/injection, schedule: Q04DX003 (ip), vehicle: saline with Tween-80 159 % of control | [14] 190 % of control
inactive: dose: 0.5 mg/kg/injection, schedule: Q04DX003 (ip), vehicle: saline with Tween-80 115 % of control | dose: 1.0 mg/kg/injection, schedule: Q04DX003 (ip), vehicle: saline with Tween-80 120 % of control | [15] 118 % of control
